The target in assay [1] is T1, binding of His-XIAP(BIR2)-avi fusion protein to GST-RIPK2 fusion protein (RIPK2/XIAP) (Homo sapiens, UniProt O43353).
T1 construct: made in house; host or cells: baculovirus infected Sf9 cells
Description: RIPK2-XIAP binding competition PPI assay (TR-FRET). Conditions: RIPK2/XIAP binding competition PPI assay; for Emax: Amax, read-out: PPI Amax bin; for IC50: read-out: PPI IC50 bin. In short, it runs like this:
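Compounds (in DMSO, 100-fold stock) incubated 120 min at 23 °C with 1 nM GST-RIPK2 (aa 1-310) and 25 nM His-XIAP(BIR2 aa 152-231)-avi, plus anti-His-XL665 and anti-GST-Tb, in pH 7.5 Tris buffer. Read-out: 665/520 nm emission ratio. Normalized to no-inhibitor (0%) and 50 nM GSK583 (−100%); Amax binned A–D.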
(Time-resolved FRET reads energy transfer from a long-lived donor to a nearby acceptor.)

In assay [2] the test system is NF-κB pathway (SEAP) in THP1-Dual cells. In words: THP-1 Dual cell SEAP assay (L18-MDP stimulated). The note with it: Homo sapiens, THP1-Dual, read-out: NF-κB THP1 IC50 bin. Type of assay: cell-based. The method in brief: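 IC50 values derive from non-linear regression of % inhibition, calculated against DMSO/L18-MDP-treated wells after media-only subtraction. NF-κB SEAP activity was read at OD 620-655 nm (QUANTI-Blue, 2 h, 37 °C) from supernatants of THP1-Dual cells. Cells had been compound-treated 30 min before overnight (20-24 h) stimulation with 10 ng/mL final L18-MDP.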

The target of assay [3] is T2, GST-RIPK2 fusion protein (human RIPK2, amino acids 1-310) (Homo sapiens, UniProt O43353).
T2 construct: made in house; host or cells: baculovirus infected Sf9 cells
Description: RIPK2 binding competition assay (TR-FRET, Tracer 199 displacement). Conditions: 10 nM Tracer 199, 1 nM GST-RIPK2, read-out: RIPK2 IC50. In short, it runs like this: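 IC50 derived from the TR-FRET emission ratio (665/620 nm, 337 nm excitation), normalized with no-inhibitor and no-enzyme controls. Incubation 45 min at 22 °C, pH 7.5 Tris buffer, with final 10 nM tracer, 1 nM Sf9-expressed GST-RIPK2 fragment (aa 1-310) and 0.5 nM Tb-labelled anti-GST.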

Structures are written as SMILES.

T2 sequence (O43353 1-310): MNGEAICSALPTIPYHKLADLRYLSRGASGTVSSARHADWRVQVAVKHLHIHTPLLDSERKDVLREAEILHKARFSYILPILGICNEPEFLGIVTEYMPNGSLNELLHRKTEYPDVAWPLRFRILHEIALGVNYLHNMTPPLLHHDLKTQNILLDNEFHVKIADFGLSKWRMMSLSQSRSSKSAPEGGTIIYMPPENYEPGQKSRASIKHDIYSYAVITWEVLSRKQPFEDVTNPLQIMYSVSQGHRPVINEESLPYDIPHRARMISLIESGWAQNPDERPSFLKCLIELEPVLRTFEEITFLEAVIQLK
T1 sequence (O43353 1-310 limits assumed): as the sequence (O43353 1-310) above

One may read the IC50 as the point on the concentration scale where inhibition reaches its midpoint. Take `COc1cc2ncc(-c3cc4cc[nH]c4nc3F)n2cc1S(=O)(=O)C(C)(C)C` [Example 216, 6-(tert-butylsulfonyl)-3-(6-fluoro-1H-pyrrolo[2,3-b]pyridin-5-yl)-7-methoxyimidazo[1,2-a]pyridine]: the Emax in assay [1] is more than 80%. For the same compound, the half-maximal inhibitory concentration (IC50) is less than 0.001 µM in assay [1], less than 0.05 µM in assay [2] and less than 0.001 µM in assay [3].

Regarding `CC(C)(C)S(=O)(=O)c1cn2c(-c3cc4cc[nH]c4cc3F)cnc2cc1OCCO` [Example 217, 2-((6-(tert-butylsulfonyl)-3-(6-fluoro-1H-indol-5-yl)imidazo[1,2-a]pyridin-7-yl)oxy)ethan-1-ol], the Emax in assay [1] fell in the range of 55 to 80%. In addition, the IC50 is less than 0.001 µM in assay [1], 0.05 to 0.25 µM in assay [2] and less than 0.001 µM in assay [3].

On to `Cc1c[nH]c2ncc(-c3cnc4cc(OCCO)c(S(=O)(=O)C(C)(C)C)cn34)cc12` [Example 218, 2-((6-(tert-butylsulfonyl)-3-(3-methyl-1H-pyrrolo[2,3-b]pyridin-5-yl)imidazo[1,2-a]pyridin-7-yl)oxy)ethan-1-ol], for which the Emax in assay [1] is 55 to 80%. Further, the IC50 is 0.0025 to 0.02 µM in assay [1], more than 1 µM in assay [2] and 0.0025 to 0.02 µM in assay [3].

Regarding `CC(C)(C)S(=O)(=O)c1cn2c(-c3cnc4[nH]cc(Cl)c4c3)cnc2cc1OCCO` [Example 219, 2-((6-(tert-butylsulfonyl)-3-(3-chloro-1H-pyrrolo[2,3-b]pyridin-5-yl)imidazo[1,2-a]pyridin-7-yl)oxy)ethan-1-ol], the Emax in assay [1] is more than 80%. The figures for the half-maximal inhibitory concentration (IC50) in assay [1], in assay [2] and in assay [3] were 0.001 to 0.0025 µM, 0.05 to 0.25 µM and 0.001 to 0.0025 µM, respectively.

Take `CC(C)(C)S(=O)(=O)c1cn2c(-c3cnc4[nH]cc(F)c4c3)cnc2cc1OCCO` [Example 220, 2-((6-(tert-butylsulfonyl)-3-(3-fluoro-1H-pyrrolo[2,3-b]pyridin-5-yl)imidazo[1,2-a]pyridin-7-yl)oxy)ethan-1-ol]: the Emax in assay [1] is more than 80%. Moreover, the results for the 50% inhibitory concentration (IC50) in assay [1], in assay [2] and in assay [3] were less than 0.001 µM, less than 0.05 µM and less than 0.001 µM, respectively.

`CC(C)(C)S(=O)(=O)c1cn2c(-c3cnc4ccnn4c3)cnc2cc1OCCO` [Example 221, 2-((6-(tert-butylsulfonyl)-3-(pyrazolo[1,5-a]pyrimidin-6-yl)imidazo[1,2-a]pyridin-7-yl)oxy)ethan-1-ol]: the Emax in assay [1] is more than 80%. For the same compound, the figures for the half-inhibitory concentration (IC50) in assay [1], in assay [2] and in assay [3] were more than 0.02 µM, more than 1 µM and more than 0.02 µM, respectively.

Consider `CC(C)(C)S(=O)(=O)c1cn2c(-c3cnc4[nH]ncc4c3)cnc2cc1OCCO` [Example 222, 2-((6-(tert-butylsulfonyl)-3-(1H-pyrazolo[3,4-b]pyridin-5-yl)imidazo[1,2-a]pyridin-7-yl)oxy)ethan-1-ol], for which the Emax in assay [1] is less than 30%. In addition, the figures for the IC50 in assay [1], in assay [2] and in assay [3] were more than 0.02 µM, more than 1 µM and 0.0025 to 0.02 µM, respectively.

In the case of `COc1c(F)cc(-c2cnc3cc(OCCO)c(S(=O)(=O)C(C)(C)C)cn23)cc1NS(C)(=O)=O` [Example 223, N-(5-(6-(tert-butylsulfonyl)-7-(2-hydroxyethoxy)imidazo [1,2-a]pyridin-3-yl)-3-fluoro-2-methoxyphenyl) methanesulfonamide], the Emax in assay [1] lay within 55 to 80%. For the same compound, the half-maximal inhibitory concentration (IC50) in assay [1] was less than 0.001 µM; in assay [2], 0.05 to 0.25 µM; in assay [3], less than 0.001 µM.

Regarding `CCS(=O)(=O)Nc1cc(-c2cnc3cc(OCCO)c(S(=O)(=O)C(C)(C)C)cn23)cc(F)c1OC` [Example 224, N-(5-(6-(tert-butylsulfonyl)-7-(2-hydroxyethoxy)imidazo [1,2-a]pyridin-3-yl)-3-fluoro-2-methoxyphenyl) ethanesulfonamide], the Emax in assay [1] was more than 80%. For the same compound, the IC50 was less than 0.001 µM in assay [1], less than 0.05 µM in assay [2] and less than 0.001 µM in assay [3].

Source of the values: patent US20260137706A1, “METHODS OF TREATING INFLAMMATORY DISEASES” (INTERLINE THERAPEUTICS, INC., priority 2023, published 2026).
